Measurements taken from PubChem BioAssay AID2060896 (Molecular Pharmacology Branch, DTP, NCI, 2025).
pIC50: −log10 of the molar value.

Test system: 941728-121-R-J1-PDC complex spheroid viability
Assay: Anticancer human tumor 941728-121-R-J1-PDC patient-derived lung adenocarcinoma cell line growth inhibition [RAS]
Settings: for pIC50: curve of first compound; for viability, T/C: stronger effect = lower value
Method in brief: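 Agents were tested in combination matrices in half-log decrements from a top concentration at or near clinical Cmax (10 microM if undetermined). Targets were multi-cell spheroids of tumour lines plus HUVEC and MSC stromal cells.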
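Note: spheroids exposed to compounds for 7 days before readout.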
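Throughout, for viability, T/C: 100% = DMSO vehicle control viability.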

C=CC(=O)N1CCN(c2nc(OCC3CCCN3C)nc3c(F)c(-c4nc(N)cc(C)c4C(F)(F)F)c(Cl)cc23)C(C)C1 (centres undefined) + C#Cc1c(F)ccc2cc(O)cc(-c3ncc4c(N5CC6CCC(C5)N6)nc(OCC56CCCN5CC(F)C6)nc4c3F)c12 was tested, and the pIC50 (second compound 0.0316 µM) was > 8.50, the pIC50 (second compound 0.1 µM) was > 8.50 and the pIC50 (second compound 0.316 µM) was > 8.50. For the same molecule, the pIC50 (second compound 1 µM) was > 8.50, the pIC50 (second compound 3.16 µM) was > 8.50 and the pIC50 (second compound 10 µM) was > 8.50. For the same molecule, the viability, T/C (second compound 0.0316 µM, first compound 0.00316 µM) was 22.3%, the viability, T/C (second compound 0.0316 µM, first compound 0.01 µM) was 20.1% and the viability, T/C (second compound 0.0316 µM, first compound 0.0316 µM) was 18.7%. For the same molecule, the viability, T/C (second compound 0.0316 µM, first compound 0.1 µM) was 21%, the viability, T/C (second compound 0.0316 µM, first compound 0.316 µM) was 22.6% and the viability, T/C (second compound 0.0316 µM, first compound 1 µM) was 21.2%. For the same molecule, the viability, T/C (second compound 0.1 µM, first compound 0.00316 µM) was 22.9%, the viability, T/C (second compound 0.1 µM, first compound 0.01 µM) was 19.5% and the viability, T/C (second compound 0.1 µM, first compound 0.0316 µM) was 21.8%. The viability, T/C (second compound 0.1 µM, first compound 0.1 µM) was 20.7%, the viability, T/C (second compound 0.1 µM, first compound 0.316 µM) was 19.8% and the viability, T/C (second compound 0.1 µM, first compound 1 µM) was 23.9%. It also gave a viability, T/C (second compound 0.316 µM, first compound 0.00316 µM) of 22.1%, a viability, T/C (second compound 0.316 µM, first compound 0.01 µM) of 22.2% and a viability, T/C (second compound 0.316 µM, first compound 0.0316 µM) of 21%. For the same molecule, the viability, T/C (second compound 0.316 µM, first compound 0.1 µM) was 23.4%, the viability, T/C (second compound 0.316 µM, first compound 0.316 µM) was 20.7% and the viability, T/C (second compound 0.316 µM, first compound 1 µM) was 21.4%. For the same molecule, the viability, T/C (second compound 1 µM, first compound 0.00316 µM) was 21.3%, the viability, T/C (second compound 1 µM, first compound 0.01 µM) was 19.5% and the viability, T/C (second compound 1 µM, first compound 0.0316 µM) was 22%. It also gave a viability, T/C (second compound 1 µM, first compound 0.1 µM) of 21.5%, a viability, T/C (second compound 1 µM, first compound 0.316 µM) of 22.2% and a viability, T/C (second compound 1 µM, first compound 1 µM) of 22.5%. For the same molecule, the viability, T/C (second compound 3.16 µM, first compound 0.00316 µM) was 22.8%, the viability, T/C (second compound 3.16 µM, first compound 0.01 µM) was 20.1% and the viability, T/C (second compound 3.16 µM, first compound 0.0316 µM) was 22%. For the same molecule, the viability, T/C (second compound 3.16 µM, first compound 0.1 µM) was 20.3%, the viability, T/C (second compound 3.16 µM, first compound 0.316 µM) was 22% and the viability, T/C (second compound 3.16 µM, first compound 1 µM) was 22.3%. The viability, T/C (second compound 10 µM, first compound 0.00316 µM) was 21.9%, the viability, T/C (second compound 10 µM, first compound 0.01 µM) was 21.1% and the viability, T/C (second compound 10 µM, first compound 0.0316 µM) was 17.5%. It also gave a viability, T/C (second compound 10 µM, first compound 0.1 µM) of 17.8%, a viability, T/C (second compound 10 µM, first compound 0.316 µM) of 18.2% and a viability, T/C (second compound 10 µM, first compound 1 µM) of 14.7%.

In the case of CC1(C)CCC(Nc2ncc(C(F)(F)F)c(-c3c[nH]c4c(P(C)(C)=O)c(C#N)ccc34)n2)CN1 (centres undefined) + C#Cc1c(F)ccc2cc(O)cc(-c3ncc4c(N5CC6CCC(C5)N6)nc(OCC56CCCN5CC(F)C6)nc4c3F)c12, the pIC50 (second compound 0.0316 µM) was < 6.52, the pIC50 (second compound 0.1 µM) was < 6.52 and the pIC50 (second compound 0.316 µM) was > 9.02. For the same molecule, the pIC50 (second compound 1 µM) was > 9.02, the pIC50 (second compound 3.16 µM) was > 9.02 and the pIC50 (second compound 10 µM) was > 9.02. For the same molecule, the viability, T/C (second compound 0.0316 µM, first compound 0.000949 µM) was 71.4%, the viability, T/C (second compound 0.0316 µM, first compound 0.003 µM) was 58.2% and the viability, T/C (second compound 0.0316 µM, first compound 0.00949 µM) was 53.7%. For the same molecule, the viability, T/C (second compound 0.0316 µM, first compound 0.03 µM) was 48%, the viability, T/C (second compound 0.0316 µM, first compound 0.0949 µM) was 49.9% and the viability, T/C (second compound 0.0316 µM, first compound 0.3 µM) was 54.6%. The viability, T/C (second compound 0.1 µM, first compound 0.000949 µM) was 68.5%, the viability, T/C (second compound 0.1 µM, first compound 0.003 µM) was 53.6% and the viability, T/C (second compound 0.1 µM, first compound 0.00949 µM) was 55.5%. For the same molecule, the viability, T/C (second compound 0.1 µM, first compound 0.03 µM) was 52.7%, the viability, T/C (second compound 0.1 µM, first compound 0.0949 µM) was 50.5% and the viability, T/C (second compound 0.1 µM, first compound 0.3 µM) was 49.4%. It also gave a viability, T/C (second compound 0.316 µM, first compound 0.000949 µM) of 51.5%, a viability, T/C (second compound 0.316 µM, first compound 0.003 µM) of 46.7% and a viability, T/C (second compound 0.316 µM, first compound 0.00949 µM) of 38.5%. The viability, T/C (second compound 0.316 µM, first compound 0.03 µM) was 45.4%, the viability, T/C (second compound 0.316 µM, first compound 0.0949 µM) was 44.4% and the viability, T/C (second compound 0.316 µM, first compound 0.3 µM) was 49.6%. The viability, T/C (second compound 1 µM, first compound 0.000949 µM) was 33.8%, the viability, T/C (second compound 1 µM, first compound 0.003 µM) was 40.2% and the viability, T/C (second compound 1 µM, first compound 0.00949 µM) was 35.6%. It also gave a viability, T/C (second compound 1 µM, first compound 0.03 µM) of 36.3%, a viability, T/C (second compound 1 µM, first compound 0.0949 µM) of 38.6% and a viability, T/C (second compound 1 µM, first compound 0.3 µM) of 38.9%. For the same molecule, the viability, T/C (second compound 3.16 µM, first compound 0.000949 µM) was 30.9%, the viability, T/C (second compound 3.16 µM, first compound 0.003 µM) was 30.8% and the viability, T/C (second compound 3.16 µM, first compound 0.00949 µM) was 33.6%. The viability, T/C (second compound 3.16 µM, first compound 0.03 µM) was 35.1%, the viability, T/C (second compound 3.16 µM, first compound 0.0949 µM) was 34.4% and the viability, T/C (second compound 3.16 µM, first compound 0.3 µM) was 34.5%. It also gave a viability, T/C (second compound 10 µM, first compound 0.000949 µM) of 23%, a viability, T/C (second compound 10 µM, first compound 0.003 µM) of 30.1% and a viability, T/C (second compound 10 µM, first compound 0.00949 µM) of 24.3%. For the same molecule, the viability, T/C (second compound 10 µM, first compound 0.03 µM) was 24.9%, the viability, T/C (second compound 10 µM, first compound 0.0949 µM) was 27.5% and the viability, T/C (second compound 10 µM, first compound 0.3 µM) was 26%.
